Counter-ions that a name gives are not always drawn. Like-named read-outs stand apart in the source and are kept apart here.
Key:
hCA IX = hCA IX (Homo sapiens, UniProt Q16790); assay: CA inhibition, stopped-flow CO2 hydration assay
Description: (§1) An applied photophysics stopped-flow instrument was used for assaying the CA-catalyzed CO2 hydration activity.[37]
(§2) The uncatalyzed rates were determined in the same manner and subtracted from the total observed rates. Stock solutions of the inhibitor (0.1 mM) were prepared in distilled–deionized water, and dilutions up to 0.01 nM were done thereafter with the assay buffer. Inhibitor and enzyme solutions were preincubated together for 15 min at room temperature prior to the assay to allow for the formation of the E–I complex. The inhibition constants were obtained by nonlinear least-squares methods using PRISM 3 and the Cheng–Prusoff equation, as reported earlier, and represent the mean from at least three different determinations. All CA isoforms were recombinant proteins obtained in-house, as reported earlier.[44]−[46]

hCA I = hCA I (Homo sapiens, UniProt P00915); assay: CA inhibition, stopped-flow CO2 hydration assay
Description: as §1, §2

hCA II = hCA II (Homo sapiens, UniProt P00918); assay: CA inhibition, stopped-flow CO2 hydration assay
Description: as §1, §2

hCA IV = hCA IV (Homo sapiens, UniProt P22748); assay: CA inhibition, stopped-flow CO2 hydration assay
hCA IV, sequence (P22748 19-312): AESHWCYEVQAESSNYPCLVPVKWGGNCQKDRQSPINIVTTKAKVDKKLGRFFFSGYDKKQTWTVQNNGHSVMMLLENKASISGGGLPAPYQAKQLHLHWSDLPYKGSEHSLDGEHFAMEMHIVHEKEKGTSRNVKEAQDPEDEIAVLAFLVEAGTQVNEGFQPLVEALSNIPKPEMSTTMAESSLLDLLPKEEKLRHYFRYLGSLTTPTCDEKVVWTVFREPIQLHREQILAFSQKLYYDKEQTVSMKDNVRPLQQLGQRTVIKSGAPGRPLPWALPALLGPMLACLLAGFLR
Description: as §1, §2

hCA VA = hCA VA (Homo sapiens, UniProt P35218); assay: CA inhibition, stopped-flow CO2 hydration assay
hCA VA, sequence (P35218 39-305): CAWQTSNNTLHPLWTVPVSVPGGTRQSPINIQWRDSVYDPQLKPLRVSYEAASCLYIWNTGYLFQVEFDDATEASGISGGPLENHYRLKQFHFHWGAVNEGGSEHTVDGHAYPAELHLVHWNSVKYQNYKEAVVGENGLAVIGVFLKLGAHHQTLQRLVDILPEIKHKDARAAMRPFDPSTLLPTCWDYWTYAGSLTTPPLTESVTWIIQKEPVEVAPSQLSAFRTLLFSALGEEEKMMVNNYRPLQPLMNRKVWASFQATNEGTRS
Description: as §1, §2

hCA VB = hCA VB (Homo sapiens, UniProt Q9Y2D0); assay: CA inhibition, stopped-flow CO2 hydration assay
hCA VB, sequence (Q9Y2D0 34-317): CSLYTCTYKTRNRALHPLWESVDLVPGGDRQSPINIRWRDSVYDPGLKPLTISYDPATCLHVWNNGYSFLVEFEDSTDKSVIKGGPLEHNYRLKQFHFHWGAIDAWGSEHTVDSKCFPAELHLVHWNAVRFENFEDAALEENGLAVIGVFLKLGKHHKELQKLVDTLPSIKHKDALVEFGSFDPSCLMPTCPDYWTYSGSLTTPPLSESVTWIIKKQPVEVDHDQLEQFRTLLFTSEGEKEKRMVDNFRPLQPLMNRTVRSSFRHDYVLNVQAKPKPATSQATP
Description: as §1, §2

[1] = target: T1, purified recombinant human DPP IV (Homo sapiens, UniProt P27487); assay: In vitro DPP IV activity assay (fluorogenic Gly-Pro-AMC substrate); assay type: biochemical
T1 construct: purchased Cayman Chemicals (Michigan)
T1 sequence (P27487 whole entry): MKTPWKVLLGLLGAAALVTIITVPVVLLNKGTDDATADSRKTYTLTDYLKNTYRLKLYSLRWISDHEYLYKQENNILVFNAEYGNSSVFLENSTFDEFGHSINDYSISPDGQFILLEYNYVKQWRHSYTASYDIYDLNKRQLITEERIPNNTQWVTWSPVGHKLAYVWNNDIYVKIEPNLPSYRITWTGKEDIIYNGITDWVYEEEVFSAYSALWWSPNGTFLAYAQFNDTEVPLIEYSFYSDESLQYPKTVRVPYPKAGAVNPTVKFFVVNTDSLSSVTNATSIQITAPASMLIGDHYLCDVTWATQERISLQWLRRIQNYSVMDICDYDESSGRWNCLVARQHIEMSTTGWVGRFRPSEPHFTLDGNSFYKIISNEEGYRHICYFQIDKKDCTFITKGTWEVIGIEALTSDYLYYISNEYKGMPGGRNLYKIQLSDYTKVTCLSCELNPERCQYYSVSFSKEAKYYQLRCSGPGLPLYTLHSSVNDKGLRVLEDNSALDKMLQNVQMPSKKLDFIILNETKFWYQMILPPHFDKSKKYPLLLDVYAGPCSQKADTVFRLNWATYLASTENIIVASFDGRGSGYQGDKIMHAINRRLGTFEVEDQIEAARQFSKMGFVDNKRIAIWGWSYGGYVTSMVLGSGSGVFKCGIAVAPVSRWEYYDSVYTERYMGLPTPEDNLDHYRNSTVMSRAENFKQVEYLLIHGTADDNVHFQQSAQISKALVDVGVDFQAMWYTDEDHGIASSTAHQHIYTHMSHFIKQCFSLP
Description: The DPP IV inhibition activities of the entire sets of compounds were carried out on purified recombinant human DPP IV using conditions previously optimized.[35]
Four independent in vitro experiments were carried out, and each of those was performed in triplicate in a white half-volume 96-well solid plate. […] Afterward, the samples were mixed and 50 μL was transferred to each plate well. Each reaction was started by adding 50 μL of the substrate solution (200 μM H-Gly-Pro-7-amido-4-methylcoumarin (AMC)) to each well and incubated at 37 °C for 30 min. […] The DPP IV enzyme and the substrate solution were provided by Cayman Chemicals (Michigan).

human cloned α1a-AR = target: T2, human cloned α1a-AR (Homo sapiens, UniProt P35348); assay: α1a-AR binding assay ([3H]prazosin displacement); details: human cloned α1a-AR expressed in HEK293 cells
T2 construct: expressed in transfected cells
T2 sequence (P35348 1-466): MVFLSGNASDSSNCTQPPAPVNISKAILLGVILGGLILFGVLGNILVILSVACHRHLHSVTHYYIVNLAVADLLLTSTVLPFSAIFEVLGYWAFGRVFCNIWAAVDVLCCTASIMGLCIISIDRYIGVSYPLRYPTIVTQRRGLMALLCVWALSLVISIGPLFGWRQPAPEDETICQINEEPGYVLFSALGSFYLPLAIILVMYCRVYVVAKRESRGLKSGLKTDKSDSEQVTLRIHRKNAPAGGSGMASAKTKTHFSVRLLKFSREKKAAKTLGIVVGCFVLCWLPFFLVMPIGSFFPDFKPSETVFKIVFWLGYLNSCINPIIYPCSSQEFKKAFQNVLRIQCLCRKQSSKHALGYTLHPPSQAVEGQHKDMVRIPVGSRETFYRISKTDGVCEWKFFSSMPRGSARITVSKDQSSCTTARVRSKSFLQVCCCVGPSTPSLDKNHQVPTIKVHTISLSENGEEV
Excerpt: Since WB-4101 is a potent α1 antagonist, this adrenoreceptor subtype was chosen to assess the loss of adrenergic affinity.
Figure S3. […] Curves […]
from single experiments were fitted using the standard four parameter logistic equation and represent the mean ± S.E.M. of 4 observations, 2 experi-ments. X-axis: Log concentrations of competitive test compounds. Y-axis: normalized [3H]prazosin Bound/Total bound.
In the table are reported the affinity constants, expressed as pKi (-log Ki), of compounds 11, 12 and WB-4101 for human cloned α1a-AR expressed in HEK293 cells. The values represent the arithmetic mean ± S.E.M. of 4 observations, 2 experiments.
ND, not determinable; NA, not available.
Note: data generated from binding assays were analyzed using Prism 5.02 (GraphPad Software Inc., San Diego, CA) and were fitted to a parametric function to derive best estimates of the IC50 and slope factor (nH); IC50 values were then converted to binding constant Ki according to Cheng-Prus- […]
The details on the α1a-AR binding assay have been described before2.
(1 picture or pasted object on this page, not shown here)

[2] = read-out: Ki CA IX, stopped-flow technique, mean from three assays
[3] = read-out: Ki CA I, stopped-flow technique, mean from three assays
[4] = read-out: Ki CA II, stopped-flow technique, mean from three assays
[5] = read-out: Ki CA IV, stopped-flow technique, mean from three assays
[6] = read-out: Ki CA VA, stopped-flow technique, mean from three assays
[7] = read-out: Ki CA VB, stopped-flow technique, mean from three assays
[8] = mean from three different assays

hCA I, sequence (P00915 whole entry): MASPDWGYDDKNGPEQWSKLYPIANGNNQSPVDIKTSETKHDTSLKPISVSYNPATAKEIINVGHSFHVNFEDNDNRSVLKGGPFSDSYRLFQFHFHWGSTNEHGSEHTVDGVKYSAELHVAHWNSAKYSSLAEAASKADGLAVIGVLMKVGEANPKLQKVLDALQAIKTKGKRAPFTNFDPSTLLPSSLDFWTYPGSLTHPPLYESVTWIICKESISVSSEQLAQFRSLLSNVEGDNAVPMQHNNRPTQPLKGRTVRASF

Row | Ki (hCA IX; [2]) | Ki (hCA I; [3]) | Ki (hCA II; [4]) | Ki (hCA IV; [5]) | Ki (hCA VA; [6]) | Ki (hCA VB; [7]) | SMILES | also measured
1 | > 10000 nM | > 10 µM | > 10 µM | > 10 µM | > 10 µM | > 10 µM | CC(C)CS(=O)(=O)Nc1ccc(OCCNCC2COc3ccccc3O2)cc1 (stereo not shown) [Compound 8, [((2-(4-Isobutylsulfanilaminophenoxy)ethyl)amino)-methyl]-1,4-benzodioxane Hydrochloride] | 
2 | 328 nM |  |  |  |  |  | [N-]=[N+]=NC(CCOc1ccc(S(N)(=O)=O)cc1)C1COc2ccccc2O1 (stereo not shown) [Compound 9, 4-(3-Azido-3-(1,4-benzodioxan)propoxy)benzenesulfonamide] | IC50 [1, 8]: 669 ± 23.5 µM
3 | 111 nM |  |  |  |  |  | COc1cc(S(N)(=O)=O)ccc1OCCC(N=[N+]=[N-])C1COc2ccccc2O1 (stereo not shown) [Compound 10, 3-Methoxy-4-(3-azido-3-(1,4-benzodioxan)propoxy)benzenesulfonamide] | 
4 | 745 nM |  |  |  |  |  | COc1cc(S(N)(=O)=O)cc(OC)c1OCCC(N=[N+]=[N-])C1COc2ccccc2O1 (stereo not shown) [Compound 11, 3,5-Dimethoxy-4-(3-azido-3-(1,4-benzodioxan)propoxy)benzenesulfonamide] | IC50 [1, 8]: 0.0332 ± 0.0058 µM; binding affinity toward α1a-AR (in words) (human cloned α1a-AR): absence of the binding affinity; pKi α1a-AR (human cloned α1a-AR; mean ± S.E.M.): >4
5 | 31.1 nM |  |  |  |  |  | COc1cc(S(N)(=O)=O)ccc1OCCC(N)C1COc2ccccc2O1 (stereo not shown) [Compound 13, 3-Methoxy-4-(3-amino-3-(1,4-benzodioxan)propoxy)benzenesulfonamide] | IC50 [1, 8]: 57.4 ± 3.2 µM
6 | 955 nM |  |  |  |  |  | COc1cc(S(N)(=O)=O)cc(OC)c1OCCC(N)C1COc2ccccc2O1 (stereo not shown) [Compound 14, 3,5-Dimethoxy-4-(3-amino-3-(1,4-benzodioxan)propoxy)benzenesulfonamide] | IC50 [1, 8]: 0.0283 ± 0.0035 µM
7 | > 10000 nM | > 10 µM | > 10 µM | > 10 µM | > 10 µM | > 10 µM | N[C@@H](CC(=O)N1CCn2c(nnc2C(F)(F)F)C1)Cc1cc(F)c(F)cc1F [Sitagliptin, reference compound] | 

The next lines start with the molecule.

Row | SMILES | Ki (hCA IX; [2]) | Ki (hCA I; [3]) | Ki (hCA II; [4]) | Ki (hCA IV; [5]) | Ki (hCA VA; [6]) | Ki (hCA VB; [7]) | also measured
8 | NS(=O)(=O)c1ccc(OCCNCC2COc3ccccc3O2)cc1 (stereo not shown) [Compound 1, [((2-(4-Sulfonamidephenoxy)ethyl)amino)-methyl]-1,4-benzodioxane Hydrochloride] | 20.3 nM |  |  |  |  |  | 
9 | CNS(=O)(=O)c1ccc(OCCNCC2COc3ccccc3O2)cc1 (stereo not shown) [Compound 2, [((2-(4-Methylsulfonamidephenoxy)ethyl)amino)-methyl]-1,4-benzodioxane Hydrochloride] | > 10000 nM | > 10 µM | > 10 µM | > 10 µM | > 10 µM | > 10 µM | 
10 | CCNS(=O)(=O)c1ccc(OCCNCC2COc3ccccc3O2)cc1 (stereo not shown) [Compound 3, [((2-(4-Ethylsulfonamidephenoxy)ethyl)amino)-methyl]-1,4-benzodioxane Hydrochloride] | > 10000 nM | > 10 µM | > 10 µM | > 10 µM | > 10 µM | > 10 µM | 
11 | CN(C)S(=O)(=O)c1ccc(OCCNCC2COc3ccccc3O2)cc1 (stereo not shown) [Compound 4, [((2-(4-Dimethylsulfonamidephenoxy)ethyl)amino)-methyl]-1,4-benzodioxane Hydrochloride] | > 10000 nM | > 10 µM | > 10 µM | > 10 µM | > 10 µM | > 10 µM | 
12 | CC(C)NS(=O)(=O)c1ccc(OCCNCC2COc3ccccc3O2)cc1 (stereo not shown) [Compound 5, [((2-(4-Isopropylsulfonamidephenoxy)ethyl)amino)-methyl]-1,4-benzodioxane Hydrochloride] |  |  |  |  |  |  | Ki (hCA I): > 10 µM; Ki (hCA II): > 10 µM; Ki (hCA IV): > 10 µM; Ki (hCA VA): > 10 µM; Ki (hCA VB): > 10 µM; Ki (hCA IX): > 10000 nM
13 | CS(=O)(=O)Nc1ccc(OCCNCC2COc3ccccc3O2)cc1 (stereo not shown) [Compound 6, [((2-(4-Methylsulfonylamidephenoxy)ethyl)amino)-methyl]-1,4-benzodioxane Hydrochloride] | > 10000 nM | > 10 µM | > 10 µM | > 10 µM | > 10 µM | > 10 µM | 
14 | CCS(=O)(=O)Nc1ccc(OCCNCC2COc3ccccc3O2)cc1 (stereo not shown) [Compound 7, [((2-(4-Ethylsulfonylamidephenoxy)ethyl)amino)-methyl]-1,4-benzodioxane Hydrochloride] | > 10000 nM | > 10 µM | > 10 µM | > 10 µM | > 10 µM | > 10 µM | 
15 | COc1cccc(OC)c1OCCNCC1COc2ccccc2O1 (stereo not shown) [WB-4101, 2-[(2,6-dimethoxyphenoxyethyl)aminomethyl]-1,4-benzodioxane, reference compound] | > 10000 nM | > 10 µM | > 10 µM | > 10 µM | > 10 µM | > 10 µM | IC50 [1]: > 700 µM

— publication PMC9937538 (Journal of Medicinal Chemistry, 2022)
